For test [1], the target named is T1, CX3CL1 (Homo sapiens, UniProt P78423).
T1 sequence (P78423 25-100): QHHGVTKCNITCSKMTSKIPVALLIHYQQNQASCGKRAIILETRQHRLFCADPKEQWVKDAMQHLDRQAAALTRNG
As to the kind of experiment: 2D 1H-15N HSQC NMR titration. Format: binding. The following applies: unbuffered pH 3.6, 25 °C; 250 μM protein; 0-100 mM ligand.

The target in test [2] is T2, CXCL12 (Homo sapiens, UniProt P48061).
T2 construct: [U-15N] recombinant mature chemokine, signal peptide removed; predominantly monomer under assay conditions
As to the kind of experiment: 2D 1H-15N HSQC NMR titration. Particulars: 25 mM d-MES pH 6.8, 37 °C; 250 μM protein; 0-100 mM ligand; shifts at the sTyr21 and sTyr12 sites. The format is binding.

In test [3] the target is T3, CCL5 (Homo sapiens, UniProt P13501).
T3 construct: [U-15N] recombinant mature chemokine, signal peptide removed; dimeric in the assay
T3 sequence (P13501 24-91): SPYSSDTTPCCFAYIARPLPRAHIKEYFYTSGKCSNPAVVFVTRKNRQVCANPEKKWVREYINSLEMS
As to the kind of experiment: 2D 1H-15N HSQC NMR titration. The format is binding. The following applies: 50 mM NaPO4 pH 3.2, 25 °C; 125 μM protein (dimeric); 0-100 mM ligand.

For test [4], the target named is CCL5 (Homo sapiens) (UniProt P13501). Particulars: cited from earlier work.

This passage reports chemical shift perturbation and Kd results from paper PMC3131587, “Sulfotyrosine Recognition as Marker for Druggable Sites in the Extracellular Space” (International Journal of Molecular Sciences, 2011).

In the case of `N[C@@H](Cc1ccc(OS(=O)(=O)O)cc1)C(=O)O` [sulfotyrosine], the chemical shift perturbation entry in test [1] is “Sulfotyrosine titration produced significant perturbations in CX3CL1 residues”; in test [2] it was “HSQC spectral overlays (Figure 4A) demonstrate significant chemical shift perturbations in the chemokine”; in test [3] it was “Residues His23, Lys45, and Arg47 identified in our titration”.

For CCL5 (from UniProt P13501), the dissociation constant Kd (commonly the free concentration of one partner at which half of the binding sites on the other are occupied at equilibrium, for simple one-to-one binding) in test [4] was 35 µM.
